“And” between values parts separate entries of the source, which are not always exact repeats. Equal entries are not always repeated. Where a SMILES comes first, the peptide text is derived from it.
Assays:
human neutrophils [1] = experiment: Human neutrophil chemotaxis assay; type: cell-based
Experimental: Purified human neutrophils were labeled with calcein-AM (Fluka, Buchs, Switzerland). Test compounds (PGP, Ac-PGP, RTR, and Ac-RTR) or IL-8 (Sigma) as positive chemoattractant control were diluted in RPMI containing BSA (0.1%) and added at graded concentrations into the wells of a 96-well ChemoTX plate (3.2 mm diameter, 5 µm pore size; NeuroProbe, Gaithersburg, MD). Labeled cells (50,000 per well) were added onto the filters above the wells that received the test compounds. Plates were incubated for 90 min at 37 °C. The filters were removed and fluorescence in the receiving wells was measured using a SpectraMAX Gemini EM instrument (Molecular Devices, Sunnyvale, CA; λex = 485 nm; λem = 538 nm). The chemotactic index was measured as the ratio of fluorescence in the test wells and in control (buffer only) wells.

LTA4H [2] = target: T1, LTA4H (Homo sapiens, UniProt P09960); experiment: LTA4H aminopeptidase assay with surrogate substrate Arg-AMC; type: biochemical; set-up: Full-length LTA4H containing a N-terminal (His)6-tag; (His)6-tag (N, cleaved yes); (Gly3-Ser)3 spacer (N, cleaved yes); made in house; host or cells: E. coli BL21 (DE3) star
T1 sequence (P09960 1-611): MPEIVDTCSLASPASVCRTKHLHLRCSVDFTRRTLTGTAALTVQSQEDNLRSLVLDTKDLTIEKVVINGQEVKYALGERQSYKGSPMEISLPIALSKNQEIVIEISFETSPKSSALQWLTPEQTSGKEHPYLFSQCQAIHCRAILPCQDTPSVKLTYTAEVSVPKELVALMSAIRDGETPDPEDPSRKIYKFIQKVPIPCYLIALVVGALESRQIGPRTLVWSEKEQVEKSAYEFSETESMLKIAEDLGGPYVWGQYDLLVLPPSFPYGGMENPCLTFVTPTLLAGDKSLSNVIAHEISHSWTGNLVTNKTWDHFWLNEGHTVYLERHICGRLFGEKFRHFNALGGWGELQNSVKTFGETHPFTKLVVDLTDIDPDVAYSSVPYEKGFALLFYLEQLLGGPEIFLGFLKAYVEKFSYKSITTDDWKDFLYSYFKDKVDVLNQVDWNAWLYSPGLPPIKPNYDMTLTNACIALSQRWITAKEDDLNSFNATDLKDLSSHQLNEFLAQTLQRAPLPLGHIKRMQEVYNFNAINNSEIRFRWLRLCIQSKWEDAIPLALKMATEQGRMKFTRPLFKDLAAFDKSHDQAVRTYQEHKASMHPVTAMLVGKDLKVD
Experimental: (§1) The LTA4H aminopeptidase assays were run using several surrogate substrates: Arg-Rho110-D-Pro (Arg-Rho, Biosyntan GmbH, Germany) or Arg-AMC (Bachem, Switzerland), Pro-AMC (Bachem, Switzerland) and Ala-AMC (Bachem, Switzerland). Assays were performed at RT in 1536-well plates in Tris buffer, pH 7.2 containing NaCl (100 mM), CaCl2 (2 mM), CHAPS (0.5%) and BSA (0.1%). […] The reaction was incubated between 1–2 h (depending on substrate) prior to reading the increase in fluorescence on an EnVision.

LTA4H [3] = target: T1, LTA4H; experiment: LTA4H aminopeptidase assay with surrogate substrate Ala-AMC; type: biochemical; set-up: Full-length LTA4H containing a N-terminal (His)6-tag; (His)6-tag (N, cleaved yes); (Gly3-Ser)3 spacer (N, cleaved yes); made in house; host or cells: E. coli BL21 (DE3) star; conditions: for IC50: Table 2; for Effect on Ala-AMC hydrolysis: Table 1, whether compound increased or inhibited hydrolysis of Ala-AMC by the enzyme
Experimental: as §1

LTA4H [4] = target: T1, LTA4H; experiment: LTA4H aminopeptidase assay with surrogate substrate Pro-AMC; type: biochemical; set-up: Full-length LTA4H containing a N-terminal (His)6-tag; (His)6-tag (N, cleaved yes); (Gly3-Ser)3 spacer (N, cleaved yes); made in house; host or cells: E. coli BL21 (DE3) star
Experimental: as §1

LTA4H [5] = target: T1, LTA4H; experiment: PGP peptidolysis assay by LC-MS/MS; type: biochemical; set-up: Full-length LTA4H containing a N-terminal (His)6-tag; (His)6-tag (N, cleaved yes); (Gly3-Ser)3 spacer (N, cleaved yes); made in house; host or cells: E. coli BL21 (DE3) star
Experimental: The aminopeptidase activity of LTA4H was assessed with H-PGP-OH (Bachem, Switzerland) as substrate. Assays were performed at RT in black 384-well low volume plates (Greiner) and analyzed by LC-MS/MS. All compounds were tested as 8 point dose response curves in triplicates included on every plate. 3 µl of compound diluted in assay buffer (Tris (50 mM), NaCl (150 mM), CaCl2 (10 mM) at pH7.5) was transferred to the plate followed by 3 µl of enzyme solution (20 nM LTA4H in assay buffer). The enzyme compound mixture was incubated at room temperature for 15 min prior to the addition of 6 µl substrate solution (800 µM PGP in assay buffer). Upon addition of the substrate, the plate was placed on a shaker at 25 °C for 40 min. The reaction was stopped by addition of 12 µl formic acid (0.2% v/v). The final concentration of the enzyme in the assay was 5 nM, the PGP 400 µM and the compound concentration range was from 50000 nM to 3.2 nM. For peptide quantification, an HPLC instrument from Agilent Series 1290 (binary high pressure gradient system) with detectors UV, fluorescence and mass (single Quad) detectors was used. HPLC was done using an Atlantis T3 column (C18 100 × 2.1mm, […], 100 Å) with A: water (MQ) + 0.1% formic acid and B: acetonitrile + 0.1% formic acid: 0–0.3 min 0% buffer B, then increased to 100% buffer B at 0.31–0.65 min and again decreased to 0% buffer B at 0.66–0.70 min. Flow was set to 1.5 ml/min with start gradient pressure of 400 bar.

[6] = PGP degradation assay in BALF ex-vivo (LC-MS/MS); type: in vitro ADME, mouse; conditions: BALF of wt and LTA4H-KO mice, 24 h at 37 °C, compared with PBS
Experimental: 200 µl of BALF were spiked with PGP and Ac-PGP at the final concentration of 10 nM. […] After incubation, samples were filtered (Amicon Ultra-0.5, Membrane Ultracel-30, PMNL 30 kD) by centrifugation (3 min at 10,000 × g). Filtered samples were transferred to vials for liquid chromatography tandem mass spectrometry (LC-MS/MS) analysis. The LC system consisted of an Acquity UPLC I-Class interfaced with a Xevo-TQS triple quadruple MS (Waters). […] PGP was monitored with MRM m/z transitions of 270.1 > 173.1 (quantifier) and 270.1 > 70.1 and 270.1 > 116.1 (qualifiers). Ac-PGP was monitored with m/z transitions of 312.2 > 112.1 (quantifier) and 312.2 > 116.1 and 312.2 > 140.1 (qualifiers).

human neutrophils [7] = experiment: Human neutrophil shape change assay; type: cell-based; conditions: isolated human neutrophils
Experimental: Neutrophils were purified by Ficoll density gradient centrifugation from human blood and incubated with graded concentrations of PGP, Ac-PGP or the known neutrophil chemoattractant GROα in assay buffer containing BSA (0.1%) in PBS for 10 min at 37 °C, 5% CO2 and 90% humidity. Cells were then fixed and shape change analyzed by flow cytometry.

[8] = Table 2, read-out: IC50 Arg-AMC
[9] = Table 2, read-out: IC50 Pro-AMC
[10] = Table 1, average of minimum two biological replicates, read-out: IC50 Arg-AMC
[11] = Table 1, read-out: IC50 Pro-AMC

Row | Compound | IC50 (LTA4H [2]; [10]) | Effect on Ala-AMC hydrolysis (LTA4H [3]) | IC50 (LTA4H [4]; [11]) | Ratio IC50 PGP/Arg-AMC (LTA4H [5]; Table 1) | IC50 (LTA4H [5]; Table 1, read-out: IC50 PGP) | also measured
1 | IL-8: positive chemoattractant control |  |  |  |  |  | neutrophil chemotaxis (human neutrophils [1]; concentration as low as 10 nM): substantial chemotaxis
2 | O=Cc1ccc(Oc2nc3ncccc3s2)cn1 [Compound 17, 5-(thiazolo[4,5-b]pyridin-2-yloxy)picolinaldehyde] |  |  |  |  |  | IC50 (LTA4H [2]; [8]): 82 nM; IC50 (LTA4H [3]): 550 nM; IC50 (LTA4H [4]; [9]): 560 nM; Ratio IC50 PGP/Arg-AMC (LTA4H [5]; Table 2, fold selectivity): 14 and 13.5; IC50 (LTA4H [5]; Table 2, read-out: IC50 PGP): 1110 nM
3 | c1ccc(Cc2ccc(-c3c[nH]cn3)cc2)cc1 [Compound 2, 4-(4-benzylphenyl)-1H-imidazole] | 270 nM | increase | 280 nM | 1.4 | 380 nM | 
4 | CC(=O)N1CCC[C@H]1C(=O)NCC(=O)N1CCC[C@H]1C(=O)O [Ac-PGP, N-acetly-Pro-Gly-Pro] (Ac-Pro-Gly-Pro-OH) |  |  |  |  |  | Ac-PGP stability in exudates [6]: remained as stable over 24 h at 37 °C as in PBS
5 | Cn1cnc(-c2ccc(Oc3ccccc3)cc2)c1 [Compound 7, 1-methyl-4-(4-phenoxyphenyl)-1H-imidazole] | 2870 nM | increase | 1690 nM | 0.49 | 1400 nM | 
6 | OCc1ccc(Oc2nc3ccccc3s2)cc1 [Compound 14] |  |  |  |  |  | IC50 (LTA4H [2]; [8]): 225 nM; IC50 (LTA4H [3]): > 25000 nM; IC50 (LTA4H [4]; [9]): 152 nM; Ratio IC50 PGP/Arg-AMC (LTA4H [5]; Table 2, fold selectivity): 0.34; IC50 (LTA4H [5]; Table 2, read-out: IC50 PGP): 76 nM
7 | COc1ccc(Cc2ccccc2)cc1 [4-MDM, 4-Methoxydiphenylmethane, reference compound] | 10100 nM | increase | 33600 nM | 0.42 | 4220 nM | 
8 | Oc1cc(-c2ccc(Oc3ccccc3)cc2)n[nH]1 [Compound 8, 3-(4-phenoxyphenyl)-1H-pyrazol-5-ol] | 1300 nM | increase | 1350 nM | 1.44 | 1870 nM | 
9 | arginine-threonine-arginine [RTR] |  |  |  |  |  | neutrophil chemotaxis (human neutrophils [1]; graded concentrations up to mM range, 90 min at 37 °C): entirely negative
10 | Nc1nc(-c2ccc(Cc3ccccc3)cc2)cs1 [ARM-1, 4-(4-benzylphenyl) thiazol-2-amine, reference compound] | 970 nM | increase | 1030 nM | 0.40 | 390 nM | 
11 | O=Cc1ncc(Oc2nc3ccccc3s2)cn1 [Compound 16] |  |  |  |  |  | IC50 (LTA4H [2]; [8]): 2580 nM; IC50 (LTA4H [3]): > 25000 nM; IC50 (LTA4H [4]; [9]): 15700 nM; IC50 (LTA4H [5]; Table 2, read-out: IC50 PGP): 11200 nM
12 | GROα: known chemokine and neutrophil chemoattractant |  |  |  |  |  | ED50 neutrophil shape change (human neutrophils [7]): approximately 0.2 nM
13 | c1ccc(Oc2ccc(-c3cc[nH]c3)cc2)cc1 [Compound 9, 3-(4-phenoxyphenyl)-1H-pyrrole] | 480 nM | increase | 470 nM | 0.07 | 35 nM | 
14 | c1ccc(Oc2ccc(-c3c[nH]cn3)cc2)cc1 [Compound 6, 5-(4-phenoxyphenyl)-1H-imidazole] |  |  |  |  |  | IC50 (LTA4H [2]): 64 nM; IC50 (LTA4H [4]): 77 nM; IC50 (LTA4H [5]): 45 nM

Reference: PMC5648829 (Scientific Reports, 2017)
